The values that follow come from patent US8729095B2, “3-(biaryloxy)propionic acid derivatives for prevention and/or treatment of thromboembolic diseases” (Daiichi Sankyo Company, Limited, priority 2009, dated 2014).

The subject of assay [1] is platelet aggregation induced by ADP in rat platelet-rich plasma (PRP). The assay can be described thus: Platelet aggregation inhibitory activity during oral administration in a rat (ex vivo, ADP-induced). The conditions noted are these: male Wistar rats, 1 mg/10 ml/kg orally, blood collected 4 hours after administration, ADP final concentration 3 μM, vs. control PRP (solvent only), read-out: Inhibition Rates (%). As to the method:
1 mg/10 ml/kg of the test compound was orally administered by gavage to male rats (Slc: Wistar, age 8 to 9 weeks) that had been fasted overnight. 4 hours after administration, a syringe containing 1/10 volume of a 3.13% sodium citrate solution was used to collect blood from the abdominal aorta of a rat under anesthesia. From the collected blood, platelet-rich plasma (PRP) and platelet-poor plasma (PPP) were prepared according to the method described in the method for measuring human platelet aggregation inhibitory activity. PRP was left at rest at 16° C. for 30 minutes, and subsequently used for measurement.
200 μL of the separately collected PRP was dispensed into a cuvette for the aggregation test, followed by incubation at 37° C. for 2 minutes, and subsequently 2 μL of 0.3 mM ADP was added (final concentration 3 μM) to induce platelet aggregation.
Platelet aggregation was measured for 8 minutes using an aggregometer (MCM HEMA TRACER 313M; MC MEDICAL, INC.). With the light transmittance rate of PPP being set as an aggregation value of 100%, the maximum aggregation rate of PRP was determined, and compared with the maximum aggregation rate of control PRP (rat administered only with a solvent) to calculate inhibition rates.

In assay [2] the test system is platelet aggregation induced by ADP in human platelet-rich plasma (PRP). The assay is described as follows: Human platelet aggregation inhibitory activity (ADP-induced, platelet-rich plasma). In kind it is cell-based. The conditions noted are these: 8 min, ADP final concentration 20 μM, maximum aggregation rate, measured for 8 minutes. The protocol: A blood collecting syringe containing 1/10 volume of a 3.8% sodium citrate solution was used to collect blood from radial vein of a healthy person. The collected blood was centrifuged at 180×g at room temperature for 10 minutes to separate the supernatant (platelet-rich plasma; PRP). After PRP was separately collected, the remaining blood was centrifuged at 1,600×g for 10 minutes to separately collect platelet-poor plasma (PPP) of the upper layer. PRP was left at rest at 16° C. for 30 minutes, and subsequently used for measurement.
200 μL of the separately collected PRP was dispensed into a cuvette for the aggregation test, and 1 μL of dimethylsulfoxide (control) or a test compound solution diluted with dimethylsulfoxide was added, followed by incubation at 37° C. for 2 minutes. Subsequently, 2 μL of 2 mM ADP was added (final concentration 20 μM) to induce platelet aggregation.
Platelet aggregation was measured for 8 minutes using an aggregometer (MCM HEMA TRACER 313M; MC MEDICAL, INC.). With the light transmittance rate of PPP being set as an aggregation value of 100%, the maximum aggregation rate was determined for each concentration of the test compounds to calculate IC50 values.

Regarding `CCc1cnc2c(c1)N(C1CCN(C(=O)c3ccc(-c4ccccc4O[C@H](C)CC(=O)O)cc3F)CC1)C(=O)C(C)(C)O2` [Example 53, (3R)-3-[(4′-{[4-(7-Ethyl-3,3-dimethyl-2-oxo-2,3-dihydro-1H-pyrido[2,3-b][1,4]oxazin-1-yl)piperidin-1-yl]carbonyl}-3′-fluorobiphenyl-2-yl)oxy]butanoic acid], in assay [1], the inhibition at 1 mg/kg stood at 44%. Moreover, in assay [2], the IC50 was 6.4 µM.

In the case of `C[C@H](CC(=O)O)Oc1ccccc1-c1ccc(C(=O)N2CCC(N3C(=O)C(C)(C)Oc4ncc(Cl)cc43)CC2)c(F)c1` [Example 6, (3R)-3-[(4′-{[4-(7-Chloro-3,3-dimethyl-2-oxo-2,3-dihydro-1H-pyrido[2,3-b][1,4]oxazin-1-yl)piperidin-1-yl]carbonyl}-3′-fluorobiphenyl-2-yl)oxy]butanoic acid], in assay [1], the inhibition at 1 mg/kg is 54%. For the same molecule, the IC50 in assay [2] turned out to be 2.4 µM.

With `C[C@H](CC(=O)O)Oc1ccccc1-c1ccc(C(=O)N2CCC(N3C(=O)C(C)(C)Oc4ncc(Cl)cc43)CC2)c(Cl)c1` [Example 19, (3R)-3-[(3′-Chloro-4′-{[4-(7-chloro-3,3-dimethyl-2-oxo-2,3-dihydro-1H-pyrido[2,3-b][1,4]oxazin-1-yl)piperidin-1-yl]carbonyl}biphenyl-2-yl)oxy]butanoic acid], the inhibition at 1 mg/kg in assay [1] was 64%. This molecule yielded an IC50 in assay [2] of 7.5 µM.

As for `C[C@H](CC(=O)O)Oc1ccccc1-c1ccc(C(=O)N2CCC(N3C(=O)C(C)(C)Oc4ncc(Cl)cc43)CC2)c(N)c1` [Example 50, (3R)-3-[(3′-Amino-4′-{[4-(7-chloro-3,3-dimethyl-2-oxo-2,3-dihydro-1H-pyrido[2,3-b][1,4]oxazin-1-yl)piperidin-1-yl]carbonyl}biphenyl-2-yl)oxy]butanoic acid], the inhibition at 1 mg/kg in assay [1] worked out at 53%. Further, inhibition in assay [2] was half-maximal at 0.87 µM (IC50).

Regarding `C[C@@H]1Oc2ncc(Cl)cc2N(C2CCN(C(=O)c3ccc(-c4ccccc4OC[C@H](C)C(=O)O)cc3F)CC2)C1=O` [Example 24, (2S)-3-{[4′-({4-[(3S)-7-Chloro-3-methyl-2-oxo-2,3-dihydro-1H-pyrido[2,3-b][1,4]oxazin-1-yl]piperidin-1-yl}carbonyl)-3′-fluorobiphenyl-2-yl]oxy}-2-methylpropanoic acid], in assay [1], the inhibition at 1 mg/kg was 44%. The molecule further displayed an IC50 in assay [2] of 3.1 µM.

`C[C@H](CC(=O)O)Oc1ccccc1-c1cnc(C(=O)N2CCC(N3C(=O)C(C)(C)Cc4ncc(Cl)cc43)CC2)c(F)c1` [Example 38, (3R)-3-[2-(6-{[4-(7-Chloro-3,3-dimethyl-2-oxo-3,4-dihydro-1,5-naphthyridin-1(2H)-yl)piperidin-1-yl]carbonyl}-5-fluoropyridin-3-yl)phenoxy]butanoic acid]: the inhibition at 1 mg/kg in assay [1] was found to be 52%. This molecule also returned an IC50 in assay [2] of 2 µM.

`Cc1cc(-c2cc(F)ccc2O[C@H](C)CC(=O)O)ccc1C(=O)N1CCC(N2C(=O)C(C)(C)Cc3ncc(Cl)cc32)CC1` [Example 45, (3R)-3-[(4′-{[4-(7-Chloro-3,3-dimethyl-2-oxo-3,4-dihydro-1,5-naphthyridin-1(2H)-yl)piperidin-1-yl]carbonyl}-5-fluoro-3′-methylbiphenyl-2-yl)oxy]butanoic acid]: the inhibition at 1 mg/kg in assay [1] was found to be 51%. This molecule came in with an IC50 in assay [2] of 11 µM.

Regarding `C[C@H](CC(=O)O)Oc1ccccc1-c1cc(F)c(C(=O)N2CCC(N3C(=O)C(C)(C)Oc4ncc(Cl)cc43)CC2)cc1F` [Example 34, (3R)-3-[(4′-{[4-(7-Chloro-3,3-dimethyl-2-oxo-2,3-dihydro-1H-pyrido[2,3-b][1,4]oxazin-1-yl)piperidin-1-yl]carbonyl}-2′,5′-difluorobiphenyl-2-yl)oxy]butanoic acid], the inhibition at 1 mg/kg in assay [1] came out at 55%. Further, the 50% inhibitory concentration (IC50) in assay [2] stood at 2.3 µM.

For the molecule `Cc1cc(-c2cc(F)ccc2O[C@H](C)CC(=O)O)ccc1C(=O)N1CCC(N2C(=O)C(C)(C)Oc3ncc(Cl)cc32)CC1` [Example 17, (3R)-3-[(4′-{[4-(7-Chloro-3,3-dimethyl-2-oxo-2,3-dihydro-1H-pyrido[2,3-b][1,4]oxazin-1-yl)piperidin-1-yl]carbonyl}-5-fluoro-3′-methylbiphenyl-2-yl)oxy]butanoic acid], in assay [1], the inhibition at 1 mg/kg was determined as 52%. The IC50 in assay [2] was found to be 9.8 µM.

For the molecule `CC[C@@H](COc1ccccc1-c1ccc(C(=O)N2CCC(N3C(=O)C(C)(C)Oc4ncc(Cl)cc43)CC2)c(F)c1)C(=O)O` [Example 10, (2S)-2-{[(4′-{[4-(7-Chloro-3,3-dimethyl-2-oxo-2,3-dihydro-1H-pyrido[2,3-b][1,4]oxazin-1-yl)piperidin-1-yl]carbonyl}-3′-fluorobiphenyl-2-yl)oxy]methyl}butanoic acid], the inhibition at 1 mg/kg in assay [1] came out at 47%. Moreover, the IC50 in assay [2] was 8.4 µM.

On to `Cc1cc(-c2ccccc2O[C@H](C)CC(=O)O)ccc1C(=O)N1CCC(N2C(=O)C(C)(C)Cc3ncc(Cl)cc32)CC1` [Example 36, (3R)-3-[(4′-{[4-(7-Chloro-3,3-dimethyl-2-oxo-3,4-dihydro-1,5-naphthyridin-1(2H)-yl)piperidin-1-yl]carbonyl}-3′-methylbiphenyl-2-yl)oxy]butanoic acid], for which the inhibition at 1 mg/kg in assay [1] came to 47%. Moreover, in assay [2], the IC50 is 5.2 µM.

In the case of `C[C@@H](Oc1ccccc1-c1ccc(C(=O)N2CCC(N3C(=O)C(C)(C)Oc4ncc(Cl)cc43)CC2)c(F)c1)[C@@H](C)C(=O)O` [Example 9, (2R,3R)-3-[(4′-{[4-(7-Chloro-3,3-dimethyl-2-oxo-2,3-dihydro-1H-pyrido[2,3-b][1,4]oxazin-1-yl)piperidin-1-yl]carbonyl}-3′-fluorobiphenyl-2-yl)oxy]-2-methylbutanoic acid], the inhibition at 1 mg/kg in assay [1] is 52%. In addition, in assay [2], the IC50 worked out at 2.1 µM.

Take `Cc1cc(-c2ccccc2O[C@H](C)CC(=O)O)ccc1C(=O)N1CCC(N2C(=O)C(C)(C)Oc3ncc(Cl)cc32)CC1` [Example 16, (3R)-3-[(4′-{[4-(7-Chloro-3,3-dimethyl-2-oxo-2,3-dihydro-1H-pyrido[2,3-b][1,4]oxazin-1-yl)piperidin-1-yl]carbonyl}-3′-methylbiphenyl-2-yl)oxy]butanoic acid]: the inhibition at 1 mg/kg in assay [1] came out at 40%. In assay [2], the IC50 was 6.5 µM.

With `C[C@H](CC(=O)O)Oc1ccc(F)cc1-c1cnc(C(=O)N2CCC(N3C(=O)C(C)(C)Oc4ncc(Cl)cc43)CC2)c(F)c1` [Example 42, (3R)-3-[2-(6-{[4-(7-Chloro-3,3-dimethyl-2-oxo-2,3-dihydro-1H-pyrido[2,3-b][1,4]oxazin-1-yl)piperidin-1-yl]carbonyl}-5-fluoropyridin-3-yl)-4-fluorophenoxy]butanoic acid], the inhibition at 1 mg/kg in assay [1] amounted to 54%. Also, the midpoint of inhibition in assay [2], the IC50, lay at 1.4 µM.

As for `C[C@H](CC(=O)O)Oc1ccccc1-c1cc(F)c(C(=O)N2CCC(N3C(=O)C(C)(C)Oc4ncc(Cl)cc43)CC2)c(F)c1` [Example 51, (3R)-3-[(4′-{[4-(7-Chloro-3,3-dimethyl-2-oxo-2,3-dihydro-1H-pyrido[2,3-b][1,4]oxazin-1-yl)piperidin-1-yl]carbonyl}-3′,5′-difluorobiphenyl-2-yl)oxy]butanoic acid], the inhibition at 1 mg/kg in assay [1] worked out at 75%. Moreover, the IC50 in assay [2] turned out to be 7.7 µM.
